Legend:
[1] = target: T1, DNA polymerase γ (catalytic domain) (Homo sapiens, UniProt P54098); experiment: Enzymatic incorporation of ddhCTP by DNA polymerase gamma; format: biochemical; conditions: 100 μM nucleotide, 0, 10 or 20 min, gel electrophoresis
T1 sequence (P54098 1-1239): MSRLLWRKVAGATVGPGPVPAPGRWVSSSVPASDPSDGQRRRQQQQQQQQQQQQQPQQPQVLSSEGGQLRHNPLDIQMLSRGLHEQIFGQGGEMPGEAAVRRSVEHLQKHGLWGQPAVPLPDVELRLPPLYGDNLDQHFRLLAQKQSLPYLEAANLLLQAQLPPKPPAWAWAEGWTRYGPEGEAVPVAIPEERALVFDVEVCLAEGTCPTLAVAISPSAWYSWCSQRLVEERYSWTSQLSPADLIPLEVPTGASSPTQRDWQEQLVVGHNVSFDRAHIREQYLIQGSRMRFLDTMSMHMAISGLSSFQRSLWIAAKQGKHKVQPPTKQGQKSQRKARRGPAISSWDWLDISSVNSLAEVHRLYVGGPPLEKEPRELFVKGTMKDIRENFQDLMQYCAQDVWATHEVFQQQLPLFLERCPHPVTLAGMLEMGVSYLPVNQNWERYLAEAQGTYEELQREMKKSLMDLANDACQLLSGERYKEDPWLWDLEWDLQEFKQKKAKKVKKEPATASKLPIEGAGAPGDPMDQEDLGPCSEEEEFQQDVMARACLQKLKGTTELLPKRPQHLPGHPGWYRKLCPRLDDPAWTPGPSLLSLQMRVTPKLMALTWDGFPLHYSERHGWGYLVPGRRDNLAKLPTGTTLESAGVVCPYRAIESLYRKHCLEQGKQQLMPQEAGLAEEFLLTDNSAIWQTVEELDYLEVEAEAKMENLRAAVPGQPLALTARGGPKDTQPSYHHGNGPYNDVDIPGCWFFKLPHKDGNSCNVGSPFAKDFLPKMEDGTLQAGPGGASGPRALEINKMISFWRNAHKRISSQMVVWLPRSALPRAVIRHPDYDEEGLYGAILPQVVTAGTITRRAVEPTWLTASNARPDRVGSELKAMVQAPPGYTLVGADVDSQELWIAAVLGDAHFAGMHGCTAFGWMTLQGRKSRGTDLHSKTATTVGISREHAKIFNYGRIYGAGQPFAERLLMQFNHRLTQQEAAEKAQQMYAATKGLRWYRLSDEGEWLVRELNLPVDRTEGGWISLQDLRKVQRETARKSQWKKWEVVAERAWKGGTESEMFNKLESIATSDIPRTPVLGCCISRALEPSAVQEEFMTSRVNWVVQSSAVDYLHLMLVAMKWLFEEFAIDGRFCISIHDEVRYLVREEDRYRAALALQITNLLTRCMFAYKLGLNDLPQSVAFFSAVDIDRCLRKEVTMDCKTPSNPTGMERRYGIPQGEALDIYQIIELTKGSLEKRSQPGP

ZIKV NS5 RdRp = ZIKV NS5 RdRp (Zika virus, UniProt A0A024B7W1); experiment: ZIKV RdRp-catalyzed nucleotide incorporation; format: biochemical; conditions: synthetic ddhCTP
[2] = PAMPA assay; cited from earlier work
HUH7 cells [3] = experiment: In cellulo metabolism of 1 and ddhC to ddhCTP in HUH7 cells; format: cell-based, human; conditions: 100 μM
Vero cells = experiment: Alamar Blue cell viability assay, Vero cells; format: cell-based; conditions: 2 days in culture
ZIKV (strain PRABC59) [4] = conditions: 1 mM ddhC over 24 h; cited from earlier work
WNV = experiment: Antiviral plaque assay, WNV; format: cell-based, West Nile virus; conditions: MOI 0.1, 3 days post-infection
HEK293 cells = HEK293 cells exposed to ddhC, after 48 h; cited from earlier work
HUH7 cells [5] = experiment: Alamar Blue cell viability assay, HUH7 cells; format: cell-based, human; conditions: 2 days in culture
ZIKV (strain PRABC59) [6] = experiment: Antiviral plaque assay, ZIKV; format: cell-based, Zika virus; conditions: for reduction in ZIKV virus levels: 0.1 mM dose, MOI 0.1, plaque titration 4 days post-infection

ZIKV NS5 RdRp, sequence (A0A024B7W1 2521-3423): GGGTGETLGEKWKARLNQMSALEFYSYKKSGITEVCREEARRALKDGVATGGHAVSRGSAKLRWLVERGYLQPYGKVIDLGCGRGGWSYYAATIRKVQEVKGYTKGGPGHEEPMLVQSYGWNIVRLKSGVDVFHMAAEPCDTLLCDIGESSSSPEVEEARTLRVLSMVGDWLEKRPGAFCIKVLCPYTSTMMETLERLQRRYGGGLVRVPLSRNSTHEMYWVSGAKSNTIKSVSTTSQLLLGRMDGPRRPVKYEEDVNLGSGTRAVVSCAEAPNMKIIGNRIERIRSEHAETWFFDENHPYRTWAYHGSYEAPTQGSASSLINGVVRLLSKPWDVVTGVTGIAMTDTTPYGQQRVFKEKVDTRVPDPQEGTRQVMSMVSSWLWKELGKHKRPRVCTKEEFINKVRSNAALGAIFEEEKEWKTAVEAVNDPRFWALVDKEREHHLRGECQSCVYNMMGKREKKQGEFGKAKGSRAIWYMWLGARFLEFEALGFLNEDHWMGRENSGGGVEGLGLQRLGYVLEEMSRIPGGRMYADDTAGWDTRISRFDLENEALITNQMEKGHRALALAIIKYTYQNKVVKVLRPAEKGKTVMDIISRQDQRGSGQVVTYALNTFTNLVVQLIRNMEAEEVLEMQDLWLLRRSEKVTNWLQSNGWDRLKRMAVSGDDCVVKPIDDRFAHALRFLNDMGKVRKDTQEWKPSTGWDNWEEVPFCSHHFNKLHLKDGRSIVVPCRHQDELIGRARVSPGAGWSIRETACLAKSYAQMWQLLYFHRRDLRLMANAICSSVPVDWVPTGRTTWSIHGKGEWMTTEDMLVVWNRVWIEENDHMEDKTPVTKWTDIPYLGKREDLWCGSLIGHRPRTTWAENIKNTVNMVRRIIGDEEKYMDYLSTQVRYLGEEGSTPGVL

Nc1ccn([C@@H]2OC(COP(=O)(O)OP(=O)(O)OP(=O)(O)O)=C[C@H]2O)c(=O)n1 [ddhCTP, 3’-Deoxy-3’,4’-didehydrocytidine-5’-triphosphate]
substrate for DNA polymerase γ (in words) [1]: not a substrate | mode of action in primer extension assay (in words) (ZIKV NS5 RdRp): obligate chain terminator

CC(C)OC(=O)[C@H](C)N[P@](=O)(OC[C@H]1O[C@@H](n2ccc(=O)[nH]c2=O)[C@](C)(F)[C@@H]1O)Oc1ccccc1 [sofosbuvir]
Papp [2]: 0.046 ×10⁻⁶ cm/s

Nc1ccn([C@@H]2OC(CO)=C[C@H]2O)c(=O)n1 [ddhC, 3’-deoxy-3’,4’-didehydro-cytidine]
dosed compound in HUH7 lysate 24 h following dosage (cell permeable) (HUH7 cells [3]): detected | cytotoxicity (in words) (Vero cells): neither ddhC nor 1 were cytotoxic | reduction of ZIKV levels in infected Vero cells (ZIKV (strain PRABC59) [4]): 50-200 x | activity against WNV (in words) (WNV; HUH7 cells): ineffective | activity against WNV (in words) (WNV; HUH7.5 cells): ineffective | activity against WNV (in words) (WNV; Vero cells): ineffective | ddhCTP produced (HEK293 cells): ~ 100 μM | cytotoxicity (in words) (HUH7 cells [5]): neither ddhC nor 1 were cytotoxic

CC(C)OC(=O)[C@H](C)NP(=O)(OCC1=C[C@@H](O)[C@H](n2ccc(N)nc2=O)O1)Oc1ccccc1 (stereo in doubt) [compound 1, Isopropyl ((S)-(((4R,5R)-5-(4-amino-2-oxopyrimidin-1(2H)-yl)-4-hydroxy-4,5-dihydrofuran-2-yl)methoxy)(phenoxy)phosphoryl)-L-alaninate]
dosed compound in HUH7 lysate 24 h following dosage (cell permeable) (HUH7 cells [3]): detected | cytotoxicity (in words) (Vero cells): neither ddhC nor 1 were cytotoxic | reduction of WNV levels (WNV; HUH7 cells): > 4 log10 pfu/mL | reduction of WNV levels (WNV; HUH7.5 cells): > 4 log10 pfu/mL | activity against WNV (in words) (WNV; Vero cells): inactive | reduction in ZIKV virus levels (ZIKV (strain PRABC59) [6]; HUH7 cells): > 1 log10 pfu/mL | reduction in ZIKV virus levels (ZIKV (strain PRABC59) [6]; HUH7.5 cells): > 1 log10 pfu/mL | activity against ZIKV in Vero cells (in words) (ZIKV (strain PRABC59) [6]; Vero cells, MOI 0.1, 4 days post-infection, compared with HUH7 and HUH7.5): weaker activity | cytotoxicity (in words) (HUH7 cells [5]): neither ddhC nor 1 were cytotoxic

From publication PMC8877721 (Journal of medicinal chemistry, 2021)
